This passage reports IC50 results from patent US20220380371A1, “MLL1 INHIBITORS AND ANTI-CANCER AGENTS” (NOVARTIS AG, priority 2019, published 2022).

Each structure is given as a SMILES string.

Test [1] addresses wild type MLL1 four-member complex (MLL1-4C) (Homo sapiens, UniProt Q03164). Briefly: MLL1 LC-MS Assay. To be noted: read-out: LCMS. Format: biochemical. An outline of the steps:
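Compound pre-incubated 20 min with MLL1-4C and SAM, then H3[1-21]-biotin (H3K4me0) substrate added; final 30 nM enzyme, 2.5 μM SAM, 10 μM peptide in Tris pH 8.0 with MgCl2, DTT, Tween 20, BSA. After 120 min at rt, TFA-quenched SAH quantified by LC-MS/MS with d4-SAH; IC50 from dose-response fit.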

For a further test, the system named is MV4-11 cells. Briefly: MV4-11 6-Day Cell Growth CTG (CellTiter-Glo) Assay. The class given is cell-based. To be noted: Homo sapiens, MV4-11, 144 h, MV4-11 cell growth CellTiter-Glo, 6 days. The essentials: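 MV4-11 AML cells (RPMI 1640, 10% FBS) seeded at 300 cells/well and exposed for 6 days at 37 °C to a 12-point, 1:3 compound series starting at 50 μM final. Viable cells read by CellTiter-Glo luminescence; percent inhibition versus DMSO-only wells fitted to dose-response curves for IC50.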
(In ATP-based viability assays light output follows the ATP content of the culture.)

The target in test [2] is wild type MLL1 five-member complex (MLL1-5C) (Homo sapiens, UniProt Q03164). Put plainly: MLL1 Flashplate Assay. The conditions noted are these: read-out: MLL1 flash plate. The class given is biochemical. The method, then: MLL1 Flashplate Assay To assess the compound potency in MLL1 Flashplate assay, compounds were serially diluted 3-fold in DMSO to obtain a total of twelve concentrations. Then the test compounds at each concentration (250 nL of each) were transferred by Mosquito into Corning #3675 384-well plate. Solutions (15 μL) of 4.2 nM wild type MLL1 five-member complex (MLL1-5C) in the assay buffer (20 mM Tris-HCl, pH 8.0, 0.01% Tween 20, 1 mM DTT, 0.01% BSA) were added to the wells. A 10 μL solution of 2.5 μM of the peptide substrate H3K4me0 (histone H3[1-21]-Biotin) and 1.25 μM ^3H-SAM in the reaction buffer was then added to initiate each reaction. The final components in the reaction solution include 2.5 nM MLL1-5C, 0.5 μM ^3H-SAM, and 1 μM H3K4me0 with varying concentration of the compounds. A positive control consisted of 2.5 nM MLL1-5C, 0.5 μM ^3H-SAM, and 1 μM substrate in the absence of the test compound, and a negative control consisted of 0.5 μM ^3H-SAM, and 1 μM substrate only. Each reaction was incubated at rt for 90 min, then stopped by addition of 5 μL per of quench solution (0.5 mM SAM in assay buffer). 25 μL of each reaction solution was transferred to FlashPlate streptavidin 384-well microplate (PerkinElmer). After at least 1 h incubation at rt, the wells were washed three times with 0.1% Tween-20 in dH2O using the BioTek plate washer. The plates were then read in MicroBeta (PerkinElmer). The radioactive readouts were then normalized based on the values coming from the positive and negative controls to give percent enzyme activities. The data were then fit to a dose response equation using the program Helios to get the IC50 values of the test compounds.

A further test has as its system H3K4me3 in MV4-11 cells. Put plainly: MV4-11 H3K4me3 Cellular ELISA Assay. The conditions noted are these: Homo sapiens, MV4-11, 48 h. The class given is cell-based. An outline of the steps:
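MV4-11 cells were treated for 48 h with 12-point 1:3 compound dilutions (from 10 mM stock), then histones were acid-extracted with 0.5M HCl and neutralized. H3K4me3 and total H3 were measured by HRP chemiluminescent ELISA, and inhibition versus DMSO after H3 normalization was curve-fitted for IC50.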
(In general: In an ELISA, binding on a coated surface is turned into a signal by an enzyme label.)

With `Nc1ncnc2c1ncn2Cc1cc(F)ccc1N1CC[C@](N)(C(=O)NC2CC2)C1` [Example 14], the IC50 in test [1] is greater than 100 nM; in the test with MV4-11 cells, 2000 to 3000 nM; in test [2] it was greater than 100 nM; in the test with H3K4me3 in MV4-11 cells it was less than 1900 nM.
`Nc1ncnc2c1ncn2Cc1c(N2CC[C@](N)(C(=O)NC3CC3)C2)ccc2c1OC(F)(F)O2` [Example 15]: the IC50 in test [1] is less than 50 nM; with MV4-11 cells, less than 2000 nM; in test [2], less than 60 nM; in the test with H3K4me3 in MV4-11 cells, less than 1900 nM.
In the same order, the values of `NC(=O)[C@@]1(N)CCN(c2cc(Cl)cc(-c3cccc(C4CCCCC4)c3)c2Cn2cnc3c(N)ncnc32)C1` [Example 16] are greater than 100 nM, less than 2000 nM, greater than 100 nM and less than 1900 nM.
For the molecule `C=CC(=O)N1CCN(C(=O)[C@@]2(N)CCN(c3ccc(F)c(CC)c3Cn3cnc4c(N)ncnc43)C2)CC1` [Example 17], the IC50 in test [1] was less than 50 nM; in the test on MV4-11 cells it was less than 2000 nM; in test [2] it was less than 60 nM; with H3K4me3 in MV4-11 cells, less than 1900 nM.
`Nc1ncnc2c1ncn2Cc1c(Br)cc(Cl)cc1N1CC[C@](N)(c2nc[nH]n2)C1` [Example 18, (R)-9-(2-(3-amino-3-(1H-1,2,4-triazol-3-yl)pyrrolidin-1-yl)-6-bromo-4-chlorobenzyl)-9H-purin-6-amine]: the IC50 is less than 50 nM in test [1], less than 2000 nM in the test on MV4-11 cells, less than 60 nM in test [2] and less than 1900 nM in the test with H3K4me3 in MV4-11 cells.
With `Nc1ncnc2c1ncn2Cc1c(Br)cc(Cl)cc1N1CC[C@](N)(CO)C1` [Example 19], the IC50 in test [1] was 50 to 100 nM; in the test with MV4-11 cells, 2000 to 3000 nM; in test [2], less than 60 nM; in the test on H3K4me3 in MV4-11 cells it was less than 1900 nM.
In the case of `Nc1ncnc2c1ncn2Cc1c(Br)c(F)c2c(c1N1CC[C@](N)(C(=O)NC3CC3)C1)OCC2` [Example 20], the IC50 in test [1] is less than 50 nM; with MV4-11 cells, less than 2000 nM; in test [2], less than 60 nM; with H3K4me3 in MV4-11 cells, less than 1900 nM.
As to `Nc1ncnc2c1ncn2Cc1c(N2CCC(N)(c3ccccn3)C2)ccc(F)c1C(F)(F)F` (stereo not shown) [Example 22], the IC50 in test [1] is 50 to 100 nM; in the test with MV4-11 cells it was less than 2000 nM; in test [2] it was 60 to 100 nM; in the test with H3K4me3 in MV4-11 cells, less than 1900 nM.
Turning to `Nc1ncnc2c1ncn2Cc1c(N2CC[C@](N)(c3ccccn3)C2)ccc(F)c1C(F)(F)F` [Example 23], the IC50 in test [1] was less than 50 nM; in the test with MV4-11 cells it was less than 2000 nM; in test [2] it was less than 60 nM; with H3K4me3 in MV4-11 cells it was less than 1900 nM.
In the same order, the values of `Nc1ncnc2c1ncn2Cc1c(Br)cc2c(c1N1CCC(N)(C(=O)NC3CC3)C1)OCO2` (stereo not shown) [Example 31] are less than 50 nM, less than 2000 nM, less than 60 nM and less than 1900 nM.
On to `COC[C@@]1(N)CCN(c2cc(Cl)cc(Br)c2Cn2cnc3c(N)ncnc32)C1` [Example 32, (R)-9-(2-(3-amino-3-(methoxymethyl)pyrrolidin-1-yl)-6-bromo-4-chlorobenzyl)-9H-purin-6-amine], for which the IC50 was greater than 100 nM in test [1], greater than 3000 nM in the test with MV4-11 cells, 60 to 100 nM in test [2] and greater than 3000 nM in the test on H3K4me3 in MV4-11 cells.
On to `Nc1ncnc2c1ncn2Cc1c(Br)cc(Cl)c(Cl)c1N1CC[C@](N)(C(=O)NC2CC2)C1` [Example 43], for which the IC50 in test [1] was 50 to 100 nM; in the test with MV4-11 cells, greater than 3000 nM; in test [2], less than 60 nM; in the test on H3K4me3 in MV4-11 cells, greater than 3000 nM.
`Nc1ncnc2c1ncn2Cc1c(Br)c(Cl)c(Cl)c(Cl)c1N1CCC(N)(C(=O)NC2CC2)C1` (stereo not shown) [Example 44]: the IC50 in test [1] is 50 to 100 nM; with MV4-11 cells, greater than 3000 nM; in test [2], less than 60 nM; with H3K4me3 in MV4-11 cells, less than 1900 nM.
With `CN(C)Cc1c(F)ccc(N2CC[C@](N)(C(=O)NC3CC3)C2)c1Cn1cnc2c(N)ncnc21` [Example 45, (R)-3-amino-1-(2-((6-amino-9H-purin-9-yl)methyl)-3-((dimethylamino)methyl)-4-fluorophenyl)-N-cyclopropylpyrrolidine-3-carboxamide], the IC50 in test [1] was 50 to 100 nM; with MV4-11 cells, less than 2000 nM; in test [2] it was greater than 100 nM; in the test with H3K4me3 in MV4-11 cells, less than 1900 nM.
As to `Nc1ncnc2c1ncn2Cc1c(N2CC[C@](N)(C(=O)N[C@H]3C[C@@H]3c3ccccc3)C2)ccc(F)c1CN1CCOCC1` [Example 51], the IC50 in test [1] is less than 50 nM; in the test on MV4-11 cells, less than 2000 nM; in test [2], less than 60 nM; in the test with H3K4me3 in MV4-11 cells, less than 1900 nM.
Turning to `Nc1ncnc2c1ncn2Cc1c(N2CC[C@](N)(C(=O)NC3CC3)C2)ccc(F)c1CN1CC(F)(F)C1` [Example 52], the IC50 was 50 to 100 nM in test [1], less than 2000 nM with MV4-11 cells, 60 to 100 nM in test [2] and less than 1900 nM with H3K4me3 in MV4-11 cells.
As to `Nc1ncnc2c1ncn2Cc1c(N2CC[C@](N)(C(=O)NC3CC3)C2)ccc(C(F)(F)F)c1CN1CCC1` [Example 62], the IC50 in test [1] was less than 50 nM; in the test on MV4-11 cells, less than 2000 nM; in test [2], less than 60 nM; with H3K4me3 in MV4-11 cells it was less than 1900 nM.
Regarding `Nc1ncnc2c1ncn2Cc1c(N2CC[C@](N)(C(=O)NC3CC3)C2)ccc(F)c1CN1CCOCC1` [Example 65], the IC50 in test [1] is less than 50 nM; in the test with MV4-11 cells it was less than 2000 nM; in test [2] it was greater than 100 nM; in the test on H3K4me3 in MV4-11 cells it was less than 1900 nM.
Turning to `Nc1ncnc2c1ncn2Cc1c(N2CC[C@](N)(C(=O)NC3CC3)C2)ccc(F)c1CN1CCC1` [Example 70], the IC50 in test [1] was 50 to 100 nM; in the test on MV4-11 cells, less than 2000 nM; in test [2] it was greater than 100 nM; in the test with H3K4me3 in MV4-11 cells it was less than 1900 nM.
In the same order, the values of `Nc1ncnc2c1ncn2Cc1c(-c2cccc(C3CCCCC3)c2)cc(Cl)cc1N1CC[C@](N)(c2nn[nH]n2)C1` [Example 84] are 50 to 100 nM, less than 2000 nM, less than 60 nM and less than 1900 nM.
For `Nc1ncnc2c1ncn2Cc1c(N2CC[C@](N)(c3nc[nH]n3)C2)ccc(Cl)c1Cl` [Example 85], the IC50 in test [1] was less than 50 nM; in the test on MV4-11 cells, less than 2000 nM; in test [2], less than 60 nM; in the test on H3K4me3 in MV4-11 cells, less than 1900 nM.
In the same order, the values of `Nc1ncnc2c1ncn2Cc1c(N2CC[C@](N)(C(=O)NC3CC3)C2)ccc(Cl)c1COC(F)F` [Example 86] are less than 50 nM, less than 2000 nM, less than 60 nM and less than 1900 nM.
Consider `CN(C)Cc1c(Cl)c(Cl)cc(N2CC[C@](N)(C(=O)NC3CC3)C2)c1Cn1cnc2c(N)ncnc21` [Example 88, (R)-3-amino-1-(2-((6-amino-9H-purin-9-yl)methyl)-4,5-dichloro-3-((dimethylamino)methyl)phenyl)-N-cyclopropylpyrrolidine-3-carboxamide], for which the IC50 in test [1] is less than 50 nM; in the test on MV4-11 cells, less than 2000 nM; in test [2], less than 60 nM; in the test with H3K4me3 in MV4-11 cells, less than 1900 nM.
`CCc1cc(-c2cccs2)cc(N2CC[C@](N)(C(=O)NC3CC3)C2)c1Cn1cnc2c(N)ncnc21` [Example 93]: the IC50 is less than 50 nM in test [1], less than 2000 nM in the test on MV4-11 cells, less than 60 nM in test [2] and less than 1900 nM in the test with H3K4me3 in MV4-11 cells.
`CCc1cc(-c2cnn(C)c2)cc(N2CC[C@](N)(C(=O)NC3CC3)C2)c1Cn1cnc2c(N)ncnc21` [Example 96]: the IC50 is less than 50 nM in test [1], greater than 3000 nM in the test with MV4-11 cells, less than 60 nM in test [2] and 1900 to 3000 nM in the test on H3K4me3 in MV4-11 cells.
